PMC8007633, “The effect of Aspalathus linearis (Burm.f.) R.Dahlgren and its compounds on tyrosinase and melanogenesis” (Scientific Reports, 2021)
In brackets after ≈: the same amount, converted by molar mass. Where two headings read alike, the source gives them in different places. Starred links: 1 amine or outer side, 2 acyl side, 3 side chain; linkers in the order of their positions; H or OH if unused. Positions of bridges follow the written chain, without caps; N, C: chain ends. Non-standard residues stand in square brackets, D forms with d. Residues, ends and D or L forms follow the SMILES beside them. Chains are numbered I, II in the order given. Actinocin(9to1) = Cc1c2oc3c(C)ccc(C(=O)[*:1])c3nc-2c(C(=O)[*:2])c(N)c1=O; NMeV = CN[C@H](C(=O)O)C(C)C; Sar = CNCC(=O)O

How the values were obtained:
mushroom tyrosinase [1] = target: T1, mushroom tyrosinase (Agaricus bisporus, UniProt C7FF04); experiment: Diphenolase tyrosinase assay (enzymatic rate, L-dopa as substrate); assay type: biochemical; conditions: for Tyrosinase activity at 200 µg/mL (fold increase): rate over 30 min at 37 °C versus vehicle control; for Tyrosinase stimulation, fold increase: enzyme rate of the sample divided by enzyme rate of the vehicle control
T1 construct: purchased Sigma-Aldrich Co. LLC, St. Louis, MO, USA

mushroom tyrosinase [2] = target: T1, mushroom tyrosinase; experiment: Tyrosinase enzyme kinetics: change in L-dopa kinetics, type of inhibition; assay type: biochemical; conditions: for VMAX, Michaelis-Menten plot data of the inhibitors (Figure S 3): L-dopa with inhibitor; for Change in L-dopa kinetics, Vmax: maximum enzyme velocity; for Type of inhibition: enzyme kinetic studies
[3] = system: human melanoma cells (UCT-Mel1); experiment: Antiproliferative assay (Presto blue, 72 h); assay type: cell-based; conditions: for IC50 / EC50: Homo sapiens; for EC50 / HillSlope, sigmoidal dose-response best-fit (Table S 10) / LogEC50, sigmoidal dose-response best-fit (Table S 10): variable slope; for EC50: bottom 0, top 100, read-out: EC50, sigmoidal dose-response best-fit (Table S 10)
tyrosinase [4] = target: T2, tyrosinase (Agaricus bisporus, UniProt C7FF04); experiment: Tyrosinase enzyme kinetics in the absence of the substrate (subversive substrate properties); assay type: biochemical, mushroom; conditions: for Vmax (substrate properties): Table 3
T2 construct: purchased Sigma-Aldrich Co. LLC, St. Louis, MO, USA

[5] = system: human melanocytes (UCT-Mel-1); experiment: Masson Fontana assay (melanin produced); assay type: cell-based; conditions: for Increase in melanin produced: 265 µM (aspalathin 119.82 µg/mL, catechin 76.92 µg/mL); for Mean Diff., Negative vs sample, melanin produced (Table S 11): Dunnett's multiple comparison versus untreated melanocytes
Description: The cells were cultured as previously described. The silver nitrate solution was prepared, as described by Kwon-Chung et al.[34]. The cells were fixed and treated with the AgNO3 working solution for 40 min at 56 °C (in the dark). Following incubation, the cells were treated with sodium thiosulphate (52.63 mg/mL) for 1 min and rinsed with water. The cells were counterstained using haematoxylin. The washed cells were dehydrated and fixed on microscope slides. Light microscopy images were taken using a Zeiss Primo Vert light microscope and analysed with ImageJ[34].

tyrosinase [6] = conditions: cited from earlier work; for IC50: read-out: Antityrosinase IC50, previously reported
[7] = Tyrosinase stimulation EC50 ± SD, relative EC50, 50% of maximal response
[8] = Tyrosinase stimulation EC50 ± SD, relative EC50, value in brackets
[9] = compound as substrate, absence of L-dopa
[10] = value in brackets, read-out: Antiproliferative IC50 (converted)

T1 sequence (C7FF04 1-392 limits assumed): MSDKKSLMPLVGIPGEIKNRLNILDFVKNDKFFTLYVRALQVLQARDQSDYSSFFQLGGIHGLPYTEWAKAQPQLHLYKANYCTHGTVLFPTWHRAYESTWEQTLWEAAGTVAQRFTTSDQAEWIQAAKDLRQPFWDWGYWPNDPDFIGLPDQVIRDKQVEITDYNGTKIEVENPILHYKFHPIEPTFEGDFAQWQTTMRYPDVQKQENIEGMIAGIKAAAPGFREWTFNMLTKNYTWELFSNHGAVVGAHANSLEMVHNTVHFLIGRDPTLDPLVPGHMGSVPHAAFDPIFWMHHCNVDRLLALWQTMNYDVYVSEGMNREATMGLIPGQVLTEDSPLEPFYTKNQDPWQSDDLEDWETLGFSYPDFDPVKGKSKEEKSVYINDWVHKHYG
T2 sequence (C7FF04 1-392 limits assumed): as above

O=C(O)c1ccc(O)cc1 [4-Hydroxybenzoic acid (6), 4-hydroxy benzoic acid]
IC50 (mushroom tyrosinase [1]): 1868 ± 9.34 µM
VMAX, Michaelis-Menten plot data of the inhibitors (Figure S 3) (mushroom tyrosinase [2]): 35.00 ± 1.84 µmol/min
Change in L-dopa kinetics, Vmax (mushroom tyrosinase [2]): 35.00 ± 1.84 µM/min

Cc1c2oc3c(C)ccc(C(=O)N[C@@H]4C(=O)N[C@H](C(C)C)C(=O)N5CCC[C@H]5C(=O)N(C)CC(=O)N(C)[C@@H](C(C)C)C(=O)O[C@@H]4C)c3nc-2c(C(=O)N[C@@H]2C(=O)N[C@H](C(C)C)C(=O)N3CCC[C@H]3C(=O)N(C)CC(=O)N(C)[C@@H](C(C)C)C(=O)O[C@@H]2C)c(N)c1=O [Actinomycin D, reference compound] (I: T[dV]P[Sar][NMeV] / II: T[dV]P[Sar][NMeV]; ester I:1-I:C, II:1-II:C; linker I:N-II:N via Actinocin(9to1))
IC50 ([3]; 72 h, read-out: Antiproliferative IC50 ± standard deviation): 0.039 ± 0.002 µg/mL

O=C(CCc1ccc(O)c(O)c1)c1c(O)cc(O)c(C2OC(CO)C(O)C(O)C2O)c1O (stereo not drawn) [Aspalathin (1), aspalathin]
Tyrosinase activity at 200 µg/mL (fold increase) (mushroom tyrosinase [1]): 1.11 fold increase
EC50 (mushroom tyrosinase [1]; [7]): 265 µM
EC50 (mushroom tyrosinase [1]; [8]): 265 µM
Tyrosinase stimulation, fold increase (mushroom tyrosinase [1]): 1.10 fold
Change in L-dopa kinetics, Vmax (mushroom tyrosinase [2]): 68.73 ± 3.47 µM/min
Substrate catalytic efficiency, times lower than native substrate (tyrosinase [4]): 3–4 times
Vmax (substrate properties) (tyrosinase [4]; [9]): 68.7 (± 3.5) mOD/min
IC50 ([3]; 72 h, concentration where 50% of the cells are viable, 72 h, read-out: Antiproliferative IC50 ± standard deviation): > 200 µg/mL
IC50 [3, 10]: 482 µM
EC50 [3]: 218 µg/mL (≈ 481 µM)
Antiproliferative IC50 ± standard deviation ([3]; concentration where 50% of the cells are viable, 72 h): 217.75 ± 1.23 µg/mL
HillSlope, sigmoidal dose-response best-fit (Table S 10) [3]: -5.86
LogEC50, sigmoidal dose-response best-fit (Table S 10) [3]: 2.34
Increase in melanin produced ([5]; listed as Aspalathin): approximately 4.5%
Increase in melanin produced ([5]; listed as aspalathin): 4.5%
Mean Diff., Negative vs sample, melanin produced (Table S 11) [5]: -8.382

O=C(O)/C=C/c1ccc(O)c(O)c1 [Caffeic acid (2), caffeic acid]
EC50 (mushroom tyrosinase [1]; [7]): 228 µM
EC50 (mushroom tyrosinase [1]; [8]): 228 µM
Vmax (substrate properties) (tyrosinase [4]; [9]): 120.9 (± 15.5) mOD/min

Oc1cc(O)c2c(c1)O[C@H](c1ccc(O)c(O)c1)[C@@H](O)C2 [Catechin (3), (+)-catechin]
Tyrosinase activity at 200 µg/mL (fold increase) (mushroom tyrosinase [1]): 0.41 fold increase
Tyrosinase stimulation, fold increase (mushroom tyrosinase [1]): 0.40 fold
Tyrosinase stimulation, fold increase (mushroom tyrosinase [1]; listed as catechin (3)): 0.4 fold
EC50 (mushroom tyrosinase [1]; relative EC50, 50% of maximal response, read-out: Tyrosinase stimulation EC50 ± SD (converted)): 494 µM
EC50 (mushroom tyrosinase [1]; relative EC50, value in brackets, read-out: Tyrosinase stimulation EC50 ± SD (converted)): 494 µM
Change in L-dopa kinetics, Vmax (mushroom tyrosinase [2]): 382.40 ± 7.03 µM/min
Substrate catalytic efficiency, times higher than native substrate L-dopa (tyrosinase [4]): 4 times
VMAX, subversive substrates (Figure S 5) (tyrosinase [4]; absence of the substrate L-dopa): 382.4 ± 7.03 µmol/min
Vmax (absence of the substrate) (tyrosinase [4]; compound as substrate): 382.4 ± 7.0 µM/min
kcat (catalytic constant) (tyrosinase [4]; compound as substrate): 229.7 s⁻¹
Km (tyrosinase [4]; [9]): 471 µM
Vmax (substrate properties) (tyrosinase [4]; [9]): 382.4 (± 7.0) mOD/min
IC50 ([3]; concentration where 50% of the cells are viable, 72 h, read-out: Antiproliferative IC50 ± standard deviation): 166.3 ± 1.14 µg/mL
IC50 [3, 10]: 573 µM
EC50 [3]: 166 µg/mL (≈ 573 µM)
HillSlope, sigmoidal dose-response best-fit (Table S 10) [3]: -3.06
LogEC50, sigmoidal dose-response best-fit (Table S 10) [3]: 2.22
Masson Fontana % increase in melanin produced ([5]; 100 µg/mL, versus untreated cells): 5.72%
Increase in melanin produced ([5]; listed as catechin): 4.5%
Increase in melanin produced ([5]; listed as catechin (3)): approximately 4.5%
Mean Diff., Negative vs sample, melanin produced (Table S 11) [5]: -15.08

O=C(O)/C=C/c1ccccc1 [Cinnamic acid (4), cinnamic acid]
IC50 (mushroom tyrosinase [1]): 943.6 ± 8.1 µM
Tyrosinase inhibitory activity in words (mushroom tyrosinase [1]): Moderate inhibitory activity
VMAX, Michaelis-Menten plot data of the inhibitors (Figure S 3) (mushroom tyrosinase [2]): 16.82 ± 0.37 µmol/min
Type of inhibition (mushroom tyrosinase [2]): competitive inhibition
Change in L-dopa kinetics, Vmax (mushroom tyrosinase [2]): 16.82 ± 0.37 µM/min

COc1cc(/C=C/C(=O)O)ccc1O [Ferulic acid (5), ferulic acid]
IC50 (mushroom tyrosinase [1]): > 1500 µM

O=c1c(O[C@@H]2O[C@H](CO)[C@@H](O)[C@H](O)[C@H]2O)c(-c2ccc(O)c(O)c2)oc2cc(O)cc(O)c12 [Isoquercitrin (7), isoquercitrin]
IC50 (mushroom tyrosinase [1]): > 646 µM
Type of inhibition (mushroom tyrosinase [2]): competitive inhibition

N[C@@H](Cc1ccc(O)c(O)c1)C(=O)O [L-dopa, reference compound]
Change in L-dopa kinetics, Vmax (mushroom tyrosinase [2]): 22.82 ± 1.07 µM/min
Vmax (substrate properties) (tyrosinase [4]; [9]): 22.8 (± 1.1) mOD/min

O=C(/C=C/c1ccc(O)c(O)c1)O[C@H](Cc1ccc(O)c(O)c1)C(=O)O [Rosmarinic acid (12), rosmarinic acid]
IC50 (mushroom tyrosinase [1]): 7.33 ± 3.33 µM
VMAX, Michaelis-Menten plot data of the inhibitors (Figure S 3) (mushroom tyrosinase [2]): 19.72 ± 1.01 µmol/min
Type of inhibition (mushroom tyrosinase [2]): competitive inhibition
IC50 (tyrosinase [6]): 4 µM

COc1cc(C(=O)O)cc(OC)c1O [Syringic acid (13), syringic acid]
IC50 (mushroom tyrosinase [1]): > 1510 µM

O=c1cc(-c2ccc(O)cc2)oc2c([C@@H]3O[C@H](CO)[C@@H](O)[C@H](O)[C@H]3O)c(O)cc(O)c12 [Vitexin (15), vitexin]
IC50 (mushroom tyrosinase [1]): > 694 µM

Oc1ccc(O)cc1 [hydroquinone]
IC50 (tyrosinase [6]): 19.8 ± 1.05 µM

CCCOC(=O)c1cc(O)c(O)c(O)c1 [n-Propyl gallate (10), n-propyl gallate]
Tyrosinase inhibitory activity in words (mushroom tyrosinase [1]): Moderate inhibitory activity
IC50 (mushroom tyrosinase [1]; read-out: Tyrosinase inhibition IC50 ± SD): 534.9 ± 5.09 µM
VMAX, Michaelis-Menten plot data of the inhibitors (Figure S 3) (mushroom tyrosinase [2]): 20.56 ± 1.72 µmol/min
Type of inhibition (mushroom tyrosinase [2]): non-competitive inhibition

O=C(O)/C=C/c1ccc(O)cc1 [p-Coumaric acid (9), p-coumaric acid]
IC50 (mushroom tyrosinase [1]): 153 ± 7.01 µM
Tyrosinase inhibitory activity in words (mushroom tyrosinase [1]): Moderate inhibitory activity
VMAX, Michaelis-Menten plot data of the inhibitors (Figure S 3) (mushroom tyrosinase [2]): 17.71 ± 0.66 µmol/min
Type of inhibition (mushroom tyrosinase [2]): competitive inhibition
Change in L-dopa kinetics, Vmax (mushroom tyrosinase [2]): 17.71 ± 0.66 µM/min

Oc1ccc(/C=C/c2cc(O)cc(O)c2)cc1 [resveratrol]
Type of tyrosinase inhibition, well-known inhibitors (tyrosinase [6]): non-competitive
IC50 (tyrosinase [6]): 27.7 ± 1.15 µM
